Measurements published in PubChem BioAssay AID1417 (Emory University Molecular Libraries Screening Center, 2008).

These compounds were tested against Induced myeloid leukemia cell differentiation protein Mcl-1 (Homo sapiens) (UniProt Q07820) (assay: Mcl-1 Noxa peptide disruption concentration-response – biochemical, TR-FRET, dose response (AID 1417)). Settings: Mcl-1/Noxa peptide interaction, cell-free TR-FRET (terbium/rhodamine), 2 h; measured here: absolute IC50.
Sequence of Induced myeloid leukemia cell differentiation protein Mcl-1 (Homo sapiens) (Q07820 whole entry, looked up): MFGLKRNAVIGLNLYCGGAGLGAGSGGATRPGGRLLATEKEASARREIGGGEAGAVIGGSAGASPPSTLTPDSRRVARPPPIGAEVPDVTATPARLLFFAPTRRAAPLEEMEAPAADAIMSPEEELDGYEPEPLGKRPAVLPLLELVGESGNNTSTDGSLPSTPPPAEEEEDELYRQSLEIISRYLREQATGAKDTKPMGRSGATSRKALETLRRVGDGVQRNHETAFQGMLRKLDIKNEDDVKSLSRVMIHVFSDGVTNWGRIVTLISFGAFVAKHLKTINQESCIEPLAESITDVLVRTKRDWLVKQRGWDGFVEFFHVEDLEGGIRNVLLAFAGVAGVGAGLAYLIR

Point of comparison: `CNc1ccc(Br)cc(C(=O)/C=C/c2ccc(Cl)cc2Cl)c1=O`, IC50 1.41 µM. Against it:
- O=C(O)c1ccc(-n2cccc2/C=C2/NC(=O)N(c3ccccc3)C2=O)cc1 — 2.4-fold higher, 3.33 µM
- CC(C)(C)c1ccc(CN2N=Nc3ccccc3S2(=O)=O)cc1 — 13-fold higher, 18.9 µM
- COc1cc(SSc2cc(OC)cc([N+](=O)[O-])c2N)c(N)c([N+](=O)[O-])c1 — lower, < 0.4 µM
- O=C(N/N=C/c1ccc(-c2ccc(S(=O)(=O)Nc3ncccn3)cc2)o1)c1cc2ccccc2cc1O — within 1.5-fold, 1.43 µM
- CS(=O)(=O)c1ccc(C(=O)NCCN2C(=O)S/C(=C\c3cccnc3)C2=O)cc1[N+](=O)[O-] — 2.2-fold higher, 3.15 µM
- CCCCN1C(=O)/C(=C/C=C/c2ccco2)C(=O)NC1=S — 2.6-fold lower, 0.55 µM
- O=S(=O)(Nc1cc(Sc2ncn[nH]2)c(O)c2ccccc12)c1ccccc1 — lower, < 0.4 µM
- O=C(O)c1cccc(NC2=C(Cl)C(=O)c3ccccc3C2=O)c1 — 2.7-fold higher, 3.79 µM
- CC1=NOC(=O)/C1=C\c1ccc(-c2ccc(Cl)cc2Cl)o1 — lower, < 0.4 µM
- Cn1c(=O)c2c(nc(NCc3ccco3)n2CC(O)COc2ccccc2)n(C)c1=O (centres undefined) — higher, > 54 µM
- Nc1nc2c(c(=O)[nH]1)C(c1cccc3ccccc13)C1=C(N2)c2ccccc2C1=O (centres undefined) — 3-fold higher, 4.17 µM
- CC(C(=O)Nc1cc([N+](=O)[O-])ccc1Cl)N1CCN(c2ccc(O)cc2)CC1 (centres undefined) — higher, > 54 µM
- C=C(C)C(=O)Nc1cccc(C2=NOC3(C2)C[C@@H](C(N)=O)N(C(=O)C(=C)C)C3)c1 (some centres undefined) — higher, > 54 µM
- C=CCOC(=O)/C(=C\c1ccccc1)NC(=O)c1ccc(C)cc1 — higher, > 54 µM
- COc1ccc(NC(=O)Cc2c(SC)c3ccccc3n2Cc2ccccc2)cc1 — higher, > 54 µM
- NC(=S)n1[nH]c(-c2ccc([N+](=O)[O-])cc2)c(N=Nc2ccc(Cl)cc2)c1=O — lower, < 0.4 µM
- CC(/C=C1\SC(=S)N(NS(=O)(=O)c2ccc(C)cc2)C1=O)=C\c1ccccc1 — 4-fold higher, 5.66 µM
- COc1cccc2c(C)c(C(=O)O)[nH]c12 — within 1.5-fold, 2 µM
- O=C(/C=C/c1cccnc1)c1ccc(O)cc1 — higher, > 54 µM
- CS(=O)(=O)C1=NSC2=NC(=O)/C(=C\c3cccn3-c3ccccc3Cl)C(=N)N21 — 4-fold higher, 5.59 µM
- O=C(CSc1ccsc1[N+](=O)[O-])Nc1cccc(F)c1 — 1.9-fold higher, 2.61 µM
- c1cncc(C2Nc3cccc4cccc(c34)N2)c1 — 5.2-fold higher, 7.27 µM
- CN1CCN(CCCN2c3ccccc3Sc3ccc(Cl)cc32)CC1 — 2.9-fold higher, 4.06 µM
- Cc1ccc(OCCCC(=O)Nc2ccccc2C(F)(F)F)cc1 — 31-fold higher, 43.9 µM
- O=c1oc2ccccc2c2oc3cc(O)c(O)cc3c12 — lower, < 0.4 µM
- O=C(N/N=C/c1ccco1)c1cccc(N2Cc3ccccc3C2)c1 — 2.5-fold higher, 3.5 µM
- CN(C)c1ccc(C(CNC(=O)c2ccc(C#N)cc2)c2c[nH]c3ccccc23)cc1 (centres undefined) — higher, > 54 µM
- O=C1CC(c2ccc(O)c(O)c2)Oc2c1ccc(O)c2O (centres undefined) — 1.7-fold higher, 2.46 µM
- CC(C)CNC(=O)c1c(N)n(Cc2ccco2)c2nc3ccccc3nc12 — higher, > 54 µM
- CCCc1ccc(/C=C2\C(=O)c3ccccc3C(O)=C2C(=O)OCC)cc1 — higher, > 54 µM
- Clc1cccc(/C=N/Nc2nc(Cl)nc3ccccc23)c1 — higher, > 54 µM
- COc1ccccc1NC(=O)c1cc2cc(Br)ccc2cc1O — within 1.5-fold, 2.11 µM
- COc1ccc(/C=N/NC(=O)c2ccc(O)cc2O)cc1CSc1ccccn1 — 1.8-fold higher, 2.48 µM
- O=C(NCc1ccccc1)c1ccc2nc(-c3ccco3)c(-c3ccco3)nc2c1 — 1.6-fold higher, 2.3 µM
- COc1cccc(C(=O)Nc2ccc3c(c2)C(=O)c2ccccc2C3=O)c1 — 1.5-fold higher, 2.12 µM
- Oc1c(/C=N/c2ccccn2)sc2ccccc12 — lower, < 0.4 µM
- COC1=C/C(=C/c2c(N)n3nc(-c4ccc(C)cc4)sc3nc2=O)C=CC1=O — 2-fold higher, 2.82 µM
- CCCSC1=N/C(=C\C=C\c2ccco2)C(=O)S1 — 2.2-fold higher, 3.1 µM
- CNC(=O)NC1CCCc2ccccc21 (centres undefined) — higher, > 54 µM
- CS(=O)(=O)c1ccc2c(c1)SC1=NC(=O)/C(=C/c3ccco3)C(=N)N12 — 1.6-fold higher, 2.19 µM
- O=C1NC(=S)N(c2ccccc2F)C(=O)/C1=C\c1cccs1 — 2.7-fold higher, 3.77 µM
- O=C(NN1C(=O)/C(=C/C=C/c2ccco2)SC1=S)c1ccncc1 — 1.6-fold higher, 2.23 µM
- O=C(C1=C[C@@H](c2ccc(C(F)(F)F)cc2)C[C@@H](OCc2ccc(CO)cc2)O1)N1CCN(Cc2ccccc2)CC1 — higher, > 54 µM
- CCOC(=O)c1c(C)oc2c1c(CN1CCN(C(=O)OCC)CC1)c(O)c1ccccc12 — lower, < 0.4 µM
- COc1cc(/C=N\Nc2nc(-c3ccc(C)cc3)c(NC(C)=O)s2)ccc1O — higher, > 54 µM
- COc1ccc(N2CCC(CNC(=O)Nc3ccc(Cl)cc3)C2)cc1 (centres undefined) — 37-fold higher, 51.7 µM
- O=c1c(-c2c(O)cc(O)c3c(=O)cc(-c4ccc(O)cc4)oc23)c(-c2ccc(O)cc2)oc2cc(O)cc(O)c12 — higher, > 54 µM
- Cc1ccc(NC(=O)CN2C(=O)N/C(=C/c3cc(C)n(-c4ccc(C(=O)O)cc4)c3C)C2=O)cc1 — 3.6-fold higher, 5.14 µM
- CC(C(=O)NC1CCCC1)N(Cc1ccco1)C(=O)c1snc(C(=O)NC2CCCC2)c1N (centres undefined) — higher, > 54 µM
- COc1cc(C(=O)Nc2ccc3c(c2)C(=O)c2ccccc2C3=O)cc(OC)c1OC — 2.8-fold higher, 3.97 µM
- COC(=O)C1=C(C(=O)OC)C(c2cc(Cl)ccc2O)c2sc(=O)[nH]c2S1 (centres undefined) — 2.4-fold higher, 3.35 µM
- O=C(O)C1Nc2c(O)cc(Cl)c([N+](=O)[O-])c2C2C=CCC12 (centres undefined) — lower, < 0.4 µM
- Cc1ccc(CNC(=O)c2ccc3c(=O)[nH]c4c(C(=O)NCC5CCCO5)sc(=S)n4c3c2)cc1 (centres undefined) — 7.9-fold higher, 11.1 µM
- COc1ccc(N2CCC(CNC(=O)Nc3ccc(OC)cc3OC)C2)cc1 (centres undefined) — within 1.5-fold, 1.24 µM
- C=CCc1cccc2cc(C(=O)Nc3ccc(S(=O)(=O)Nc4nnc(CC)s4)cc3)c(=O)oc12 — within 1.5-fold, 1.54 µM
- COCCN=c1scc(-c2cccs2)n1/N=C/c1ccc(O)c(O)c1O — 3.1-fold higher, 4.33 µM
- O=C1NC(=O)N(Cc2ccco2)C(=O)/C1=C/c1ccc(-c2cccc([N+](=O)[O-])c2)o1 — 2.3-fold higher, 3.28 µM
- CCn1nc([N+](=O)[O-])c(C(C#N)c2nc3cc(C(F)(F)F)ccc3s2)c(Cl)c1=O (centres undefined) — 2.2-fold higher, 3.15 µM
- O=[N+]([O-])c1ccc(-c2cc(-c3ccc(Cl)cc3)n[nH]2)cc1 — 4-fold higher, 5.61 µM
- COc1cc(C2C(C#N)=C(N)OC3=C2C(=O)CCC3)c([N+](=O)[O-])cc1OC (centres undefined) — 3.7-fold higher, 5.16 µM
- CN(C)c1ccc(Nc2nc(N)c([N+](=O)[O-])c(N3CCOCC3)n2)cc1 — lower, < 0.4 µM
- O=c1c(Cl)c(N/N=C/c2ccc(Cl)cc2)cnn1-c1ccccc1 — 3.1-fold higher, 4.42 µM
- CCOc1ccc(NC(=O)N(CCN2CCOCC2)Cc2ccc3c(c2)CCCN3CC)cc1 — within 1.5-fold, 0.953 µM
- CC1=NNC(=O)C1CC(=O)N/N=C(\C)c1ccco1 (centres undefined) — higher, > 54 µM
- COc1cc2c(cc1O)C[C@H]1NCCc3cc4c(c-2c31)OCO4 — 3.7-fold higher, 5.2 µM
- CC1(c2ccccc2)CC(C)(C)N2C(=O)/C(=C3\SC(=S)NC3=O)c3cccc1c32 (centres undefined) — lower, < 0.4 µM
- C1=CC2c3ccccc3NC(c3ccncc3)C2C1 (centres undefined) — within 1.5-fold, 1.81 µM
- O=C(Nc1nccs1)c1cc(-c2ccco2)nc2ccccc12 — within 1.5-fold, 1.4 µM
- O=C1NC(=S)N(c2ccc(F)cc2)C(=O)/C1=C\c1ccoc1 — lower, < 0.4 µM
- O=[N+]([O-])c1ccc(O)c(/C=N/Nc2ccc(Cl)nn2)c1 — 12-fold higher, 16.7 µM
- Cn1c(N)c(C(=O)COC(=O)c2cc(-c3ccco3)nc3ccccc23)c(=O)n(C)c1=O — 2.4-fold higher, 3.41 µM
- CCOC(=O)CSc1nnc2n1C(C)(C)Cc1ccccc1-2 — higher, > 54 µM
- C/C(=N\Nc1cccc(C(=O)O)c1)c1ccc2c(c1)Nc1ccccc1S2 — lower, < 0.4 µM
- COC(=O)c1ccc(=O)c2nc3/c(=C/O)c(O)cc(=O)c3[nH]c12 — lower, < 0.4 µM
- CNC(=O)COC(=O)c1cc(-c2ccco2)nc2ccccc12 — 2.2-fold higher, 3.16 µM
- Nc1c(C(=O)NC2CC2)sc2nc3c(c(-c4ccco4)c12)CC/C3=C/c1ccco1 — lower, < 0.4 µM
- O=C1NC(=O)C(=Cc2ccc(-c3cc(Cl)ccc3[N+](=O)[O-])o2)C(=O)N1 — 2.3-fold higher, 3.25 µM
- Cc1ccc(S(=O)(=O)C(CCC(=O)N2CCOCC2)S(=O)(=O)c2ccc(C)cc2)cc1 — higher, > 54 µM
- CC(C)c1ccc(S(=O)(=O)/N=C2/C=C(Sc3ncn[nH]3)C(=O)c3ccccc32)cc1 — lower, < 0.4 µM
- COc1ccc(C(=O)Nc2ccc(N3CCCC3)cc2)cc1 — 1.9-fold higher, 2.65 µM
- Cc1ccc(NC(=S)NNc2ccc([N+](=O)[O-])cc2S(=O)(=O)Nc2ccccc2C(=O)O)cc1C — within 1.5-fold, 1.27 µM
- O=c1nc2s/c(=C\c3ccc(-c4ccccc4[N+](=O)[O-])o3)c(=O)n2nc1-c1ccccc1 — lower, < 0.4 µM
- Cc1c(N=Nc2c(-c3ccc([N+](=O)[O-])cc3)[nH]n(C(N)=S)c2=O)cccc1[N+](=O)[O-] — lower, < 0.4 µM
- O=C(OCC(=O)N1CCN(C(=O)c2ccco2)CC1)c1cc(-c2ccco2)nc2ccccc12 — within 1.5-fold, 1.93 µM
- O=C1CCCC2=C1C(c1ccco1)Nc1ccc3ccccc3c12 (centres undefined) — 1.6-fold higher, 2.22 µM
- CC(=O)c1ccc(NC(=O)CSc2ccsc2[N+](=O)[O-])cc1 — higher, > 54 µM
- O=[N+]([O-])c1ccc2c(c1)N([O-])C1(CCCCC1)[N+]2=O — lower, < 0.4 µM
- COc1ccc(-c2cnnc(N/N=C/c3ccc(O)cc3)n2)cc1 — 6-fold higher, 8.41 µM
- Cc1nnc(NC(=O)c2sc3nc(-c4cccs4)cc(C(F)(F)F)c3c2N)s1 — within 1.5-fold, 1.6 µM
- Cc1cc(=O)oc2cc(OCc3ccc(C(=O)OCC(=O)Nc4ccc(N(C)C)cc4)cc3)ccc12 — lower, < 0.4 µM
- COc1ccc2c(c1)CC/C(=C\Nc1ccc3c(c1)OCO3)C2=O — higher, > 54 µM
- COc1cnn(-c2ccccc2)c(=O)c1SCc1ccc(Cl)cc1Cl — higher, > 54 µM
- CCOC(=O)C1=C(C)NC2=C(C(=O)CC(C)(C)C2)C1c1ccc2c(c1)CCCN2C (centres undefined) — higher, > 54 µM
- O=C(N/N=C/c1ccc(-c2ccc(Cl)c(C(=O)O)c2)o1)c1cc2c(ccc3ccccc32)o1 — lower, < 0.4 µM
- CC(C)CC1NC(=O)N(CC(=O)c2ccc3c(c2)OCCO3)C1=O (centres undefined) — higher, > 54 µM
- O=c1cc(-c2ccc(O)c(-c3c(O)cc(O)c4c(=O)cc(-c5ccc(O)cc5)oc34)c2)oc2cc(O)cc(O)c12 — within 1.5-fold, 1.78 µM
- CC(=O)Nc1sc(N/N=C\c2ccc(O)cc2)nc1-c1cccs1 — within 1.5-fold, 1.07 µM
- O=[N+]([O-])c1ccc(/C=N/NC(=S)Nc2ccc(Cl)cc2Cl)s1 — within 1.5-fold, 1.34 µM
- CC1=C(C#N)C(=O)NC(=O)/C1=C\c1ccc(-c2cc(C)c(C)cc2[N+](=O)[O-])o1 — lower, < 0.4 µM
- CCN(CC)c1ccc(NC(=O)CCCOc2cccc(C)c2)cc1 — higher, > 54 µM
- O=C(CCN1CCN(c2ccccc2)CC1)N/N=C/c1ccc(O)c(O)c1O — lower, < 0.4 µM
- CN(C)c1ccc(/C=N/N(Cc2ccccc2)c2ccccc2)cc1 — higher, > 54 µM
- Cc1ccc(NC(=O)CN2C(=O)S/C(=C\c3cccn3-c3cccc(C(=O)O)c3)C2=O)c(C)c1 — 9.3-fold higher, 13.1 µM
